The record followed here is patent US6579881B2 (Eisai Co., Ltd., priority 1997, dated 2003).

One test deals with T1, serotonin 1A receptor (Rattus norvegicus, UniProt P19327).
T1 construct: To the receptor fraction of the hippocampus were added a test compound and 0.5 nM of [^3H]; 8-hydroxy-dipropylaminotetralin; from tissue; host or cells: SD rat hippocampus, membrane (receptor) fraction
T1 sequence (P19327 1-422): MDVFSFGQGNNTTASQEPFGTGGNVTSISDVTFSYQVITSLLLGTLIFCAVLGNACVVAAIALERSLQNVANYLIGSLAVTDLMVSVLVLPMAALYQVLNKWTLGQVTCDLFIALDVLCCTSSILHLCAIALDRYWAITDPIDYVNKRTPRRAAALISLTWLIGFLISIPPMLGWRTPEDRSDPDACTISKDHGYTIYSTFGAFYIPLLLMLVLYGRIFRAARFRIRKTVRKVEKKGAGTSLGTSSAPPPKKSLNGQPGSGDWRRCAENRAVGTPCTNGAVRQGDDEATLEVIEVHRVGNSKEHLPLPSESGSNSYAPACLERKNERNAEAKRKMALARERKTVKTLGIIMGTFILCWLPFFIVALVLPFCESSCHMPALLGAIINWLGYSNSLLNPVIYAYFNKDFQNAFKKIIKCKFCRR
Description: Binding test on [3H] 8-hydroxy-dipropylaminotetralin (serotonin 1A receptor). The conditions noted are these: [3H] 8-OH-DPAT 0.5 nM, receptor fraction of rat hippocampus; read-out: 5HT1a.

The target of another test is serotonin 2 receptor (Rattus norvegicus, UniProt P14842). As to the kind of experiment: Binding test on [3H] ketanserin (serotonin 2 receptor). To be noted: [3H] ketanserin 0.3 nM, receptor fraction of rat cerebral cortex; read-out: 5HT2.
Chain of serotonin 2 receptor (P14842 whole entry): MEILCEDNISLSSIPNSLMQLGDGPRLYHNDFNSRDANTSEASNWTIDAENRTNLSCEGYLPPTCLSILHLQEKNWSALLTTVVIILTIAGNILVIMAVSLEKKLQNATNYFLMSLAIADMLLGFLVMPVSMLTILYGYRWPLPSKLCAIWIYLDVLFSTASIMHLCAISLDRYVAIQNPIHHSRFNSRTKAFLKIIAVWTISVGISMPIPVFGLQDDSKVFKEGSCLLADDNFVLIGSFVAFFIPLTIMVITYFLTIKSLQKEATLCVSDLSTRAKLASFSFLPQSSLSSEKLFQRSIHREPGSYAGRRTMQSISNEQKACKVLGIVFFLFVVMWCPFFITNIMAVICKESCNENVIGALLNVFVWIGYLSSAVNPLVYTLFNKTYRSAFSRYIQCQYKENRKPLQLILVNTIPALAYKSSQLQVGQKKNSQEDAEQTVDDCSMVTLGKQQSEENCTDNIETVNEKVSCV

Each structure is given as a SMILES string.

In the case of `OC1(C2CCc3cccnc32)CCN(CCc2ccc(F)cc2)CC1` (centres unmarked) [Example 255, 7-[4-hydroxy-1-(4-fluorophenethyl)piperidin-4-yl]-5,6-dihydro-7H-pyrindine], the Ki on serotonin 1A receptor was more than 200 nM; on serotonin 2 receptor, 15.7 nM.

For the molecule `Brc1ccc(CCN2CCC(N3CCc4ccccc43)CC2)cc1` [Example 4, 1-[1-(4-bromophenethyl)piperidin-4-yl]indoline], the Ki stood at 6 nM on serotonin 1A receptor and 24.9 nM at serotonin 2 receptor.

On to `CC1CC(C2CCN(CCc3ccc(F)cc3)CC2)c2nccnc21` (mixture of isomers) [Example 266, 5-[1-(4-fluorophenethyl)piperidin-4-yl]-7-methyl-5,6-dihydro-5H-cyclopentapyrazine], for which the Ki at serotonin 1A receptor worked out at 31.6 nM; at serotonin 2 receptor, 22.6 nM.

Turning to `CCN1CC[C@H](N2CCc3ccccc32)[C@@H](COCc2ccc(F)cc2)C1` (relative stereo) [Example 85, trans-1-[1-ethyl-3-(4-fluorobenzyloxymethyl)piperidin-4-yl]indoline], the Ki came out at 170 nM at serotonin 1A receptor and 56.2 nM at serotonin 2 receptor.

In the case of `Clc1ccc(CCN2CCC(N3CCc4ccccc43)CC2)cc1` [Example 6, 1-[1-(4-chlorophenethyl)piperidin-4-yl]indoline], the values for the Ki at serotonin 1A receptor and on serotonin 2 receptor were 4.5 nM and 17.4 nM, respectively.

On to `CCS(=O)(=O)Nc1ccc2c(c1)N(C1CCN(CCc3ccc(F)cc3)CC1)CC2` [Example 117, 1-[1-(4-fluorophenethyl)piperidin-4-yl]-6-ethanesulfonylaminoindoline], for which the values for the Ki on serotonin 1A receptor and at serotonin 2 receptor were 0.6 nM and 10.7 nM, respectively.

For `CCN1CCC(N2CC(Cc3cccnc3)c3ccccc32)CC1` (centres unmarked) [Example 245, 1-(1-ethylpiperidin-4-yl)-3-(3-pyridylmethyl)indoline], the results for the Ki at serotonin 1A receptor and at serotonin 2 receptor were more than 200 nM and 11.2 nM, respectively.

As to `Fc1ccc(CCN2CCC(N3CCc4cc5scnc5cc43)CC2)cc1` [Example 234, 1-[1-(4-fluorophenethyl)piperidin-4-yl]thiazolo[5,4-f]indoline], the Ki stood at 1.1 nM on serotonin 1A receptor and 3.3 nM at serotonin 2 receptor.

Consider `Fc1ccc(CCN2CCC(N3CCc4ccc(Cn5ccnc5)cc43)CC2)cc1` [Example 211, 1-[1-(4-fluorophenethyl)piperidin-4-yl]-6-(imidazol-1-yl)methylindoline], for which the Ki was determined as 0.53 nM at serotonin 1A receptor and 1.21 nM at serotonin 2 receptor.

For `Fc1ccc(CCN2CCC(CN3CCc4ccccc43)CC2)cc1` [Example 16, 1-[1-(4-fluorophenethyl)piperidin-4-yl]methylindoline], the Ki was found to be 109 nM on serotonin 1A receptor and 13.9 nM on serotonin 2 receptor.

For `OCCc1ccc(CCN2CCC(N3CCc4ccccc43)CC2)cc1` [Example 24, 1-{1-[4-(2-hydroxyethyl)phenethyl]piperidin-4-yl}indoline], the Ki at serotonin 1A receptor was 26.5 nM; on serotonin 2 receptor, 174 nM.

As for `Clc1cccc(CCN2CCC(N3CCc4ccccc43)CC2)c1` [Example 5, 1-[1-(3-chlorophenethyl)piperidin-4-yl]indoline], the results for the Ki on serotonin 1A receptor and at serotonin 2 receptor were 10.1 nM and 8.1 nM, respectively.

Consider `CN(C)CCOc1ccc(CCN2CCC(N3CCc4ccccc43)CC2)cc1` [Example 44, 1-{1-[4-(2-dimethylaminoethoxy)phenethyl]piperidin-4-yl}indoline], for which the figures for the Ki on serotonin 1A receptor and at serotonin 2 receptor were 4 nM and 43.7 nM, respectively.

On to `CCN1CCN([C@@H]2c3cc(OC)ccc3CC[C@H]2Oc2ccc(C(F)(F)F)cc2)CC1` (relative stereo) [Example 279, trans-1-(4-ethylpiperazin-1-yl)-7-methoxy-2-(4-trifluoromethylphenoxy)-1,2,3,4-tetrahydronaphthalene], for which the results for the Ki on serotonin 1A receptor and on serotonin 2 receptor were 0.22 nM and 90.4 nM, respectively.

Consider `Fc1ccc(CCN2CCC(N3CCc4cccnc43)CC2)cc1` [Example 260, 1-[1-(4-fluorophenethyl)piperidin-4-yl]-7-azaindoline], for which the Ki was 1.3 nM on serotonin 1A receptor and 12.9 nM at serotonin 2 receptor.

With `N#Cc1ccc2c(c1)N(C1CCN(CCc3ccc(F)cc3)CC1)CC2` [Example 124, 1-[1-(4-fluorophenethyl)piperidin-4-yl]-6-cyanoindoline], the Ki on serotonin 1A receptor turned out to be 1.1 nM; on serotonin 2 receptor it was 45.8 nM.

As to `CC(=O)NC(C)c1ccc2c(c1)N(C1CCN(CCc3ccc(F)cc3)CC1)CC2` (centres unmarked) [Example 165, 1-[1-(4-fluorophenethyl)piperidin-4-yl]-6-(1-acetamidoethyl)indoline], the Ki at serotonin 1A receptor was determined as 5.5 nM; at serotonin 2 receptor, 1.22 nM.

For the molecule `O=C1CCCCN1Cc1ccc2c(c1)N(C1CCN(CCc3ccc(F)cc3)CC1)CC2` [Example 203, 1-[1-(4-fluorophenethyl)piperidin-4-yl]-6-(2-piperidon-1-yl)methylindole], the values for the Ki on serotonin 1A receptor and on serotonin 2 receptor were 0.55 nM and 4.61 nM, respectively.

Take `CS(=O)(=O)c1ccc2c(c1)N(C1CCN(CCc3ccc(F)cc3)CC1)CC2` [Example 128, 1-[1-(4-fluorophenethyl)piperidin-4-yl]-6-methanesulfonylindoline]: the Ki at serotonin 1A receptor worked out at 0.34 nM; on serotonin 2 receptor it was 4.7 nM.

As to `COc1ccc2c(c1OC)N(C1CCN(CCc3ccc(F)cc3)CC1)CC2` [Example 108, 1-[1-(4-fluorophenethyl)piperidin-4-yl]-6,7-dimethoxyindoline], the Ki on serotonin 1A receptor came out at 172 nM; at serotonin 2 receptor, 2.2 nM.

As for `COc1ccc2c(c1)C(N1CCN(CCc3ccc(F)cc3)CC1)CCCC2` (centres unmarked) [Example 282, 1-(4-fluorophenethyl)-4-(2-methoxybenzocycloheptan-9-yl)piperazine], the Ki came out at 58.7 nM at serotonin 1A receptor and 150 nM on serotonin 2 receptor.

Consider `c1ccc2c(c1)CCN2C1CCN(CCc2ccncc2)CC1` [Example 49, 1-{1-[2-(4-pyridyl)ethyl]piperidin-4-yl}indoline], for which the Ki is 54.5 nM on serotonin 1A receptor and 29.9 nM at serotonin 2 receptor.

Take `OC1(c2ccc3c(c2)N(C2CCN(CCc4ccc(F)cc4)CC2)CC3)CCCC1` [Example 141, 1-[1-(4-fluorophenethyl)piperidin-4-yl]-6-(1-hydroxycyclopentyl)indoline]: the Ki on serotonin 1A receptor was 3.03 nM; at serotonin 2 receptor it was 343 nM.

For `CC(=O)c1ccc2c(c1)N(C1CCN(CCc3ccc(F)cc3)CC1)CC2` [Example 127, 1-[1-(4-fluorophenethyl)piperidin-4-yl]-6-acetylindoline], the Ki at serotonin 1A receptor is 0.21 nM; at serotonin 2 receptor, 5.08 nM.

On to `OC(c1ccc2c(c1)N(C1CCN(CCc3ccc(F)cc3)CC1)CC2)c1ccc[nH]1` (centres unmarked) [Example 199, 1-[1-(4-fluorophenethyl)piperidin-4-yl]-6-[1-hydroxy-1-(2-pyrrolyl)methyl]indoline], for which the figures for the Ki at serotonin 1A receptor and at serotonin 2 receptor were 1.98 nM and 1.19 nM, respectively.

Turning to `O=C1OCCN1Cc1ccc2c(c1)N(C1CCN(CCc3ccc(F)cc3)CC1)CC2` [Example 208, 1-[1-(4-fluorophenethyl)piperidin-4-yl]-6-(2-oxazolidon-3-yl)methylindoline], the Ki on serotonin 1A receptor was 2.33 nM; on serotonin 2 receptor, 1.05 nM.

For `c1ccc(CCN2CCC(N3CCc4ccccc43)CC2)cc1` [Example 3, 1-(1-phenethylpiperidin-4-yl)indoline], the Ki at serotonin 1A receptor was determined as 28.7 nM; at serotonin 2 receptor, 17.4 nM.

As for `O=C1CCCC(=O)N1Cc1ccc2c(c1)N(C1CCN(CCc3ccc(F)cc3)CC1)CC2` [Example 205, 1-[1-(4-fluorophenethyl)piperidin-4-yl]-6-(glutarimido-1-yl)methylindoline], the Ki on serotonin 1A receptor was 2.76 nM; on serotonin 2 receptor, 0.12 nM.
